Assay results taken from US9689040B2, “Selective inhibitors of tumor-initiating cells” (Children's Medical Center Corporation, priority 2011, dated 2017).

Key:
[1] = system: BPLER cells; assay: Genome-wide siRNA lethality screen (primary screen), CellTiterGlo viability; format: cell-based, human; conditions: for Ratio: R, BPLER versus HMLER, primary screen; for MAD BPLER / Fold BPLER: siRNA pool against the gene; for MAD BPLER: MAD score of viability in BPLER cells; for Fold BPLER: fold viability in BPLER cells
[2] = system: HMLER cells; assay: as above; format: cell-based, human; conditions: for Fold_HMLER / MAD_HMLER: primary screen, HMLER cells; for MAD_HMLER: MAD score; for MAD HMLER: MAD score of viability in HMLER cells; for Fold HMLER: fold viability in HMLER cells
[3] = system: BPLER cells; assay: Secondary (cherry-pick) screen with the 4 individual siRNAs of each pool; conditions: for Cherry_Score: secondary cherry-pick screen, 4 individual siRNAs of each pool
[4] = validation screen with individual siRNAs of each pool
[5] = ratio of Fold_BPLER to Fold_HMLER
[6] = ratio of fold viability BPLER/HMLER
[7] = siRNA pool against the gene, fold viability
[8] = secondary screen with the 4 individual siRNAs of each pool

| Molecule | Ratio [1] | Fold_HMLER ([2]; siRNA pool) | Cherry Score [3, 4] | Ratio BPLER/HMLER [1, 5] | Ratio BPLER/HMLER [1, 6] | MAD BPLER [1] | Fold BPLER [1] | MAD_HMLER ([2]; siRNA pool against the gene) | Fold_HMLER [2, 7] | MAD HMLER ([2]; siRNA pool against the gene) | Fold HMLER ([2]; siRNA pool against the gene) | Cherry_Score [3] | Cherry Score [3, 8] |
| --- | --- | --- | --- | --- | --- | --- | --- | --- | --- | --- | --- | --- | --- |
| NM_032425 | 0.73 | 0.77 | 2 | – | – | – | – | – | – | – | – | – | – |
| NM_032916 | 0.70 | 0.70 | 2 | – | – | – | – | – | – | – | – | – | – |
| NM_052946 | 0.67 | 0.90 | 1 | – | – | – | – | – | – | – | – | – | – |
| NM_080730 | 0.72 | 0.99 | 1 | – | – | – | – | – | – | – | – | – | – |
| NM_134444 | 0.69 | 1.01 | 1 | – | – | – | – | – | – | – | – | – | – |
| NM_148571 | 0.73 | 0.81 | 1 | – | – | – | – | – | – | – | – | – | – |
| NM_152374 | 0.72 | 0.97 | 2 | – | – | – | – | – | – | – | – | – | – |
| NM_152496 | 0.72 | 0.64 | 1 | – | – | – | – | – | – | – | – | – | – |
| NM_152655 | 0.72 | 0.89 | 2 | – | – | – | – | – | – | – | – | – | – |
| NM_152905 | 0.67 | 1.08 | 1 | – | – | – | – | – | – | – | – | – | – |
| NM_198080 | 0.67 | 0.85 | 1 | – | – | – | – | – | – | – | – | – | – |
| NOSTRIN | – | – | – | 0.67 | 0.67 | −2.06 | 0.604 | −0.69 | 0.90 | −0.69 | 0.90 | 1 | 1 |
| NUP205 | – | – | – | 0.73 | 0.73 | −2.88 | 0.544 | −1.57 | 0.75 | −1.57 | 0.75 | 3 | 3 |
| PCBP3 | – | – | – | 0.71 | 0.71 | −1.69 | 0.727 | 0.15 | 1.02 | 0.15 | 1.02 | 1 | 1 |
| PDCD4 | – | – | – | 0.73 | 0.73 | −2.81 | 0.462 | −2.25 | 0.63 | −2.25 | 0.63 | 1 | 1 |
| PDE6C | – | – | – | 0.66 | 0.66 | −1.98 | 0.621 | −0.33 | 0.95 | −0.33 | 0.95 | 1 | 1 |

| Molecule | Ratio [1] | Fold_HMLER ([2]; siRNA pool) | Cherry Score [3, 4] | Ratio BPLER/HMLER [1, 5] | Ratio BPLER/HMLER [1, 6] | MAD BPLER [1] | Fold BPLER [1] | MAD_HMLER ([2]; siRNA pool against the gene) | Fold_HMLER [2, 7] | MAD HMLER ([2]; siRNA pool against the gene) | Fold HMLER ([2]; siRNA pool against the gene) | Cherry_Score [3] | Cherry Score [3, 8] |
| --- | --- | --- | --- | --- | --- | --- | --- | --- | --- | --- | --- | --- | --- |
| PHF1 | – | – | – | 0.71 | 0.71 | −3.21 | 0.606 | −0.72 | 0.86 | −0.72 | 0.86 | 1 | 1 |
| POLA1 | – | – | – | 0.74 | 0.74 | −2.01 | 0.724 | −0.17 | 0.97 | −0.17 | 0.97 | 3 | 3 |
| PRC1 | – | – | – | 0.68 | 0.68 | −3.08 | 0.409 | −2.40 | 0.60 | −2.40 | 0.60 | 1 | 1 |
| SCD | – | – | – | 0.74 | 0.74 | −3.24 | 0.555 | −1.58 | 0.75 | −1.58 | 0.75 | 2 | 2 |
| SETX | – | – | – | 0.70 | 0.70 | −2.40 | 0.617 | −0.72 | 0.89 | −0.72 | 0.89 | 1 | 1 |
| SLC24A3 | – | – | – | 0.72 | 0.72 | −2.23 | 0.637 | −0.75 | 0.88 | −0.75 | 0.88 | 1 | 1 |
| SLC47A1 | – | – | – | 0.68 | 0.68 | −1.62 | 0.613 | −0.71 | 0.90 | −0.71 | 0.90 | 2 | 2 |
| STIM2 | – | – | – | 0.72 | 0.72 | −2.39 | 0.597 | −0.99 | 0.83 | −0.99 | 0.83 | 2 | 2 |
| TANC2 | – | – | – | 0.67 | 0.67 | −1.86 | 0.709 | 0.40 | 1.05 | 0.40 | 1.05 | 1 | 1 |
| TBC1D24 | – | – | – | 0.71 | 0.71 | −1.97 | 0.680 | −0.32 | 0.95 | −0.32 | 0.95 | 2 | 2 |
| TNPO1 | – | – | – | 0.70 | 0.70 | −1.99 | 0.630 | −0.59 | 0.90 | −0.59 | 0.90 | 1 | 1 |
| TSG101 | – | – | – | 0.66 | 0.66 | −2.45 | 0.684 | 0.23 | 1.04 | 0.23 | 1.04 | 3 | 3 |
| TUT1 | – | – | – | 0.69 | 0.69 | −1.91 | 0.680 | −0.07 | 0.99 | −0.07 | 0.99 | 2 | 2 |
| USP39 | – | – | – | 0.70 | 0.70 | −2.13 | 0.695 | −0.04 | 0.99 | −0.04 | 0.99 | 2 | 2 |
| XM_058073 | 0.73 | 0.75 | 3 | – | – | – | – | – | – | – | – | – | – |
| NM_174931 (nucleic acid, listed as Homo sapiens) DNA: AATAGAGTCTGCACTAGGAAACTGGTGGGAGCCGAGGTCCGGAAGTCCGACGCTGGTCGGTGGGCGCATGCGCAGCGCGCGCTCTACGGCGCTGAACCGGGGCGAGCAGAGAGCTGTCAGATACTATAGCCATATGAAGTTGAACATGGCAGAAGAAGAGGACTATATGTCTGATTCCTTCATTAATGTCCAAGAAGATATCAGACCAGGATTGCCAATGCTAAGGCAAATCCGAGAAGCCCGTCGAAAAGAAGAAAAGCAACAGGAAGCCAATTTGAAAAACAGGCAGAAGAGTTTAAAAGAAGAAGAACAAGAAAGACGTGACATTGGGTTGAAGAATGCACTAGGCTGTGAAAACAAAGGGTTTGCCTTGCTCCAAAAGATGGGCTATAAAAGTGGTCAGGCACTTGGCAAGAGTGGGGGTGGTATTGTTGAACCAATTCCTCTCAATATCAAAACAGGGAAAAGTGGCATTGGTCATGAGGCATCATTAAAACGGAAAGCAGAGGAAAAATTGGAAAGCTACAGAAAAAAGATTCACATGAAAAACCAAGCTGAAGAAAAAGCTGCAGAACAGTTTCGAATGCGACTTAAAAATAAGCAAGATGAAATGAAGCTAGAAGGAGATCTCAGAAGAAGCCAGCGAGCCTGTCAACAACTGGATGTCCAGAAAAATATTCAGGTTCCCAGGGAAGCATGGTACTGGTTGAGGCTTGAAGAGGAGACTGAAGAAGATGAAGAAGAAAAAGAACAGGATGAAGATGAATATAAGAGTGAAGATTTAAGCGTACTGGAAAAATTACAAATATTGACTAGTTATTTAAGAGAAGAACATCTATATTGTATTTGGTGTGGAACAGCCTATGAAGATAAAGAAGACCTATCTTCAAATTGTCCAGGACCAACTTCTGCAGATCATGACTAAGATTATTCCCAATAAAGTGGAAACTTGAAAAATGTTATTACTTCCTAGGGATAGACAATTTAGCAGTTGGAAATCTCAAATTTTTTATGCCAGTAAAGAAAGGGGGACTTTATATAATGTTTTGTTCTTTTTGTACTTTAGAATATGAATGTTCATTGACTTGAAAAAAATAATGCAATGGCATTTCAGAACACAAGTATCACAGAGATGGACAGTTACAATTTATTGCTATATTGTGATACGTGAGGGGTTTAAGGACACCAACAGGTAACTTCTTATTCCCCTCTTCACTTTGGAACAAATTGAGAAATAAGAAATGGGAGTCAGAGGAA | 0.72 | 0.65 | 1 | – | – | – | – | – | – | – | – | – | – |
